# Experimental data published in PMC1890308, “Anti-calmodulins and Tricyclic Adjuvants in Pain Therapy Block the TRPV1 Channel” (PLoS ONE, 2007).
# Values joined by “and” are separate entries in the source; they are usually repeats but may differ in a detail not shown here. Equal values may be shown once.
# Legend:
# [1] = system: heat evoked responses of dorsal horn neurons; assay: heat-evoked responses of spinal dorsal horn neurons, microiontophoresis, extracellular single unit recording; assay type: in vivo, rat
# Method: To validate in vivo efficacy of calmidazolium, experiments were carried out in a total of 22 nociceptive specific (NS) or wide dynamic range (WDR) spinal dorsal horn neurons in 16 lightly anesthetized rats. Effects of calmidazolium were studied on the heat evoked responses of dorsal horn neurons using noxious peripheral heat stimuli delivered in every 3 min in the cutaneous receptive field of the hind paw. After establishing stable baseline control responses, calmidazolium was iontophoresed (i.e. with 100 nA) from one of the barrels of the compound electrode. […] The calmidazolium evoked inhibition reached its maximum within 10 to 15 min after ejection and lasted throughout the entire recording periods (about 2 hrs) of the experiment. The monitored cells had excitatory receptive fields located on one of the hind paws. These cells usually had little spontaneous activity, located between 100–600 µm from the surface of the dorsal horn, as estimated by microdrive readings. […] Likewise to that determined previously in TRPV1-NIH3T3 cells, TRPV1-HaCaT keratinocyte lines and primary culture of nociceptive neurons, calmidazolium inhibited the ratemeter recorded signals of radiation heat pain in the rat (Fig. 7). […]
# [2] = system: heat-induced tail-flick; parameters: method as in PMID 8883861; settings: cited from earlier work
# [3] = system: formalin-induced pain; parameters: method as in PMID 8883861; settings: rat, intrathecal; cited from earlier work
# [4] = biological target: TRPV1 (Rattus norvegicus, UniProt O35433); assay: capsaicin-induced 45Ca2+-uptake in primary rat embryonic DRG cultures; assay type: cell-based; parameters: sensory neurons, expressing TRPV1 endogenously; endogenous in cells; host or cells: primary cultures of embryonic rat dorsal root ganglia (E14, E16)
# Method: Primary cultures were prepared from embryonic (E14) rat DRGs. Along with calmidazolium other polycyclic compounds were included in the vanilloid-induced ^45Ca^2+-transport assays.
# Primary DRG cultures were prepared from E16 embryonic rats as described previously then plated in 15 cm Petri dishes for 4 h to remove the most adherent fibroblasts. For Ca^2+-uptake studies primary afferents neurons cultured in 96 well plates (3×10^3 cells/well), coated with poly-D lysine/collagen, which yielded both axons and dendrites bearing neurons due to neuronal growth factor supplementation in the culture medium [1]–[4]. The dendrites are large processes branching from the cell body that taper in diameter further from the cell body. The axons are a constant diameter and project over long distances from the cell body. Before the ion transport experiment, culture medium was removed and cells were washed three times. ^45Ca-uptake assays were carried out in “nominally zero Ca^2+” (i.e. 2×10^−5 M extracellular Ca^2+ ([Ca^2+]o) in 25 mM Tris-HCl buffered Hanks' balanced salt solution (pH 7.5), supplemented with 10 µM CaCl2 and 0.8 mM MgCl2medium (HCM) [1]–[4].
# Vanilloid agonist inducible calcium transport was assayed in adherent cell lines ectopically expressing the C-terminally ε-tagged rat TRPV1 (3×10^4 cells/well) and primary cultures prepared from embryonic DRG, seeded in poly-D lysine/collagen coated 96 well plates. […] The previously established cell lines and standardized DRG cultures were extensively characterized for functional cell-based TRPV1 studies [1]–[4]. Immediately before the transport assay, cells were adapted to room temperature (20°C) for 5 min in HCM. ^45Ca^2+-uptake was performed for 10 min at 20°C in HCM using 0.1 µCi ^45Ca^2+ as radioactive tracer in a 100 µl final volume. To stop ^45Ca^2+-uptake, cells were rapidly changed back into 0.2 ml HCM, washed 4 additional times with 0.2 ml HCM, and then lysed in 80 µl/well RIPA buffer (50 mM Tris-HCl, pH 7.5, 150 mM NaCl, 1% Triton X-100, 0.5% deoxycholate, 0.1% SDS, 5 mM EDTA) for 30 min [1]–[4]. Aliquots of the solubilized cell extracts were mixed with 120 µl Microscint-40 and counted in a 96 well plate liquid scintillation counter (TopCount-NXT, Packard).
# Chain of TRPV1 (O35433 whole entry): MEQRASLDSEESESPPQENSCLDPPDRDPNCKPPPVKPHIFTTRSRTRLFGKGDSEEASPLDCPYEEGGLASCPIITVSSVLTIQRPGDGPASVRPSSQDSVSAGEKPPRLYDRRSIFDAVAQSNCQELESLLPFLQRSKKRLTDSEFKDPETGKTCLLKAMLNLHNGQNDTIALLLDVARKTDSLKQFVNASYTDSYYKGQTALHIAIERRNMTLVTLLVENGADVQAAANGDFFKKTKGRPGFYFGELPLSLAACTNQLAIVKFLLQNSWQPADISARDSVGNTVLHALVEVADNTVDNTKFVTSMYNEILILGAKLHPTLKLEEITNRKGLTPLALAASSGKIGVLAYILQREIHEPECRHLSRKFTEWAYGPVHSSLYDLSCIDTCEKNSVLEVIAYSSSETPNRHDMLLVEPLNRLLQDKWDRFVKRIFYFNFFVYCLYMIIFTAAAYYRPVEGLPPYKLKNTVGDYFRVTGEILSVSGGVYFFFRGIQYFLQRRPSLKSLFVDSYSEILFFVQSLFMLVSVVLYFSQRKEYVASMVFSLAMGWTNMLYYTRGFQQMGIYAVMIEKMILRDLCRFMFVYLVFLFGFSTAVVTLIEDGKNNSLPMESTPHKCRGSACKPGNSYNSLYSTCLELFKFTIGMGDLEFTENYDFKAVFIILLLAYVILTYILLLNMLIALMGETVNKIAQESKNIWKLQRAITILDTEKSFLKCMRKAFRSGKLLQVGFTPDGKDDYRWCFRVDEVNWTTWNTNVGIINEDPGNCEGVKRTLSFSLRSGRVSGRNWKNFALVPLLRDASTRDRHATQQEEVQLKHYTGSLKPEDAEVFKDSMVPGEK
smiles,measurement,setting,value
Clc1ccc(C(c2ccc(Cl)cc2)n2cc[n+](CC(OCc3ccc(Cl)cc3Cl)c3ccc(Cl)cc3Cl)c2)cc1 (stereo not drawn) [calmidazolium],"heat-evoked responses, % of pre-calmidazolium baseline control","[1]; anesthetized rat, iontophoresis 100 nA, noxious peripheral heat on hind paw, mean±SD, n = 6",34±23%
same,duration of inhibition (entire recording period),"[1]; heat-evoked responses, rat",about 2 hrs
same,effect on heat-induced tail-flick latency,[2],inhibit
same,analgesia in both phases of formalin tests,[3],analgesic
same,fold higher potency in DRG cultures,[4]; DRG cultures vs TRPV1-NIH3T3 cells / other compounds (comparator unclear),~3 fold
same,IC50,"[4]; rat embryonic DRG sensory neuron cultures, 2 µM capsaicin, read-out: IC50, inhibition of capsaicin-induced Ca2+-uptake",600 nM and ~600 nM
